According to patent US20240010602A1, “PHENYL UNSATURATED KETONES AS HUMAN FACTOR XIIIA INHIBITORS FOR TREATMENT OF THROMBOEMBOLIC DISEASES” (Xavier University of Louisiana, priority 2022, published 2024):

Molecular target: T1, human factor XIIIa (Homo sapiens, UniProt P00488)
T1 sequence (P00488 39-732 limits assumed): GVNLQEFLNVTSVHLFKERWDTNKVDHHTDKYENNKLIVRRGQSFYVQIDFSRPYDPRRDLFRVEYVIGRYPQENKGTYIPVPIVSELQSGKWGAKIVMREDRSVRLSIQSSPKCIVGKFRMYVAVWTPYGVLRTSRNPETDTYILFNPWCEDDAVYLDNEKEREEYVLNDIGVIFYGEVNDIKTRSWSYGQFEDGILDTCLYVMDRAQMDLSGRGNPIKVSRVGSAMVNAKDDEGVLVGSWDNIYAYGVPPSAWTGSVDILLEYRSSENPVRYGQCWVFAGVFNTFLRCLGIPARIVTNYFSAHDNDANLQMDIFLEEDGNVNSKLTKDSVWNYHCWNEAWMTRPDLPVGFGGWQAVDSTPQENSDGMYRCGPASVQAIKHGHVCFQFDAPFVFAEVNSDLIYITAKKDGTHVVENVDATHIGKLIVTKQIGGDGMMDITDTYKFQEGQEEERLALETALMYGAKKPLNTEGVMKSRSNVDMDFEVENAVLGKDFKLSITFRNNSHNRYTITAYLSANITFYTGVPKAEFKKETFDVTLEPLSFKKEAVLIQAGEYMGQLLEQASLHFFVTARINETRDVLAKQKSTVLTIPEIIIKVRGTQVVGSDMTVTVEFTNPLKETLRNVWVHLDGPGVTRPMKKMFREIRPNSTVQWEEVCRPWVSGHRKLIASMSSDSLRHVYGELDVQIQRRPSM
Experiment: bi-substrate, fluorescence-based trans-glutamination assay
Format: biochemical
Settings: pH 7.4, 37° C., 10 min incubation, N,N-dimethylcasein and dansylcadaverine substrates; read-out: FXIIIa IC50
Experimental: To evaluate the effect of inhibitor on human factor XIIIa (and other transglutaminases), a bi-substrate, fluorescence-based trans-glutamination assay was performed. Generally, 1 μL of inhibitor was diluted with 87 μL of pH 7.4 buffer (50 mM Tris-HCl, 1 mM CaCl2, 100 mM NaCl, and 2 mg/mL N,N-dimethylcasein) and 5 μL dithiothreitol (20 mM) at 37° C. followed by the addition of 2 μL of human factor XIIIa (0.3 μM) and incubation for 10 min. The activity of factor XIIIa was monitored following the addition of 5 μL of dansylcadaverine (2 mM) by measuring the initial rate of increase in fluorescence emission (λEx.=360 nm and λEm.=490 nm). Relative residual factor XIIIa activity at each concentration of the inhibitor was calculated from the ratio of factor XIIIa activity in the presence and absence of the inhibitor. Logistic Eq. 1 was used to fit the concentration dependence of residual […] activity so as to obtain the potency (IC50) and efficacy (ΔY %) of inhibition.
In this equation, Y is the ratio of residual […] activity in the presence of inhibitor to that in its absence, YM and Y0 are the maximum and minimum possible values of the fractional residual factor XIIIa activity, IC50 is the concentration of the inhibitor that leads to 50% inhibition of enzyme activity, and HS is the Hill slope. YM, Y0, IC50, and HS values are determined by nonlinear curve fitting of the data. The data is shown in FIG. 2 (top panel) and Table 1 below: […]

Q: Which IC50 does the source give for `C=C(CC)C(=O)c1ccc(OCC(=O)O)c(Cl)c1Cl` [Formula II, 2-(2,3-dichloro-4-(2-methylenebutanoyl)phenoxy)acetic acid] here?
A: 105 µM

Q: `C=C(CC)C(=O)c1ccc(OCC(=O)N(C)C)c(Cl)c1Cl` [Formula V, 2-(2,3-dichloro-4-(2-methylenebutanoyl)phenoxy)-N,N-dimethylacetamide] was tested. Which IC50 did it give?
A: 75 µM

Q: `C=CC(=O)c1c(Cl)cc(OCC(=O)N(C)C)cc1Cl` [Formula VIII, 2-(4-acryloyl-3,5-dichlorophenoxy)-N,N-dimethylacetamide] was tested. Which IC50 did it give?
A: 24 µM

Q: How did the IC50 turn out when `C=CC(=O)c1ccc(OCC(=O)O)c(Cl)c1Cl` [Formula VII, 2-(4-acryloyl-2,3-dichlorophenoxy)acetic acid] was run?
A: 83 µM

Q: Which IC50 does the source give for `C=C(CC)C(=O)c1ccc(OCC(=O)NC)c(Cl)c1Cl` [Formula IV, 2-(2,3-dichloro-4-(2-methylenebutanoyl)phenoxy)-N-methylacetamide] here?
A: 100 µM

Q: Which IC50 does the source give for `C=C(CC)C(=O)c1c(Cl)cc(OCC(=O)O)cc1Cl` [Formula VI, 2-(3,5-dichloro-4-(2-methylenebutanoyl)phenoxy)acetic acid] here?
A: 51 µM

Q: How did the IC50 turn out when `C=C(CC)C(=O)c1ccc(OCC(=O)OC)c(Cl)c1Cl` [Formula III, methyl 2-(2,3-dichloro-4-(2-methylenebutanoyl)phenoxy)acetate] was run?
A: 92 µM
